Results on 13 molecules are retold here after patent US20260242419A1, “A CYCLIC PEPTIDE FOR TRAPPING INTERLEUKIN-1 BETA” (Merck Sharp & Dohme LLC, priority 2023, published 2026).

Non-standard residues stand in square brackets, D forms with d. Residues, ends and D or L forms follow the SMILES beside them. dPro(4R-(4-pyridylmethyl)) = O=C(O)[C@H]1C[C@@H](Cc2ccncc2)CN1; Trp(βS-Me,4-F) = C[C@@H](c1c[nH]c2cccc(F)c12)[C@H](N)C(=O)O; Bip(4'-COOH) = N[C@@H](Cc1ccc(-c2ccc(C(=O)O)cc2)cc1)C(=O)O; Trp(4-Cl) = N[C@@H](Cc1c[nH]c2cccc(Cl)c12)C(=O)O; Ala(pyrimidin-5-yl) = N[C@@H](Cc1cncnc1)C(=O)O; Phe(4-COOH) = N[C@@H](Cc1ccc(C(=O)O)cc1)C(=O)O; Trp(4-F) = N[C@@H](Cc1c[nH]c2cccc(F)c12)C(=O)O; Bip = N[C@@H](Cc1ccc(-c2ccccc2)cc1)C(=O)O; Pro(cis-4-F) = O=C(O)[C@@H]1C[C@H](F)CN1; Dap(CONH2) = NC(=O)NC[C@H](N)C(=O)O; d(αMeD) = C[C@@](N)(CC(=O)O)C(=O)O; 4Pal = N[C@@H](Cc1ccncc1)C(=O)O; aThr = C[C@H](O)[C@H](N)C(=O)O; dOrn = NCCC[C@@H](N)C(=O)O; dDab = NCC[C@@H](N)C(=O)O; dDap = NC[C@@H](N)C(=O)O; Dab = NCC[C@H](N)C(=O)O; Nva = CCC[C@H](N)C(=O)O; Aib = CC(C)(N)C(=O)O

In general, IC50 refers to the concentration that gives 50% inhibition.

The target in this assay is T1, IL-1β (Homo sapiens, UniProt P01584).
T1 construct: purchased BioLegend 579404
T1 sequence (P01584 117-269): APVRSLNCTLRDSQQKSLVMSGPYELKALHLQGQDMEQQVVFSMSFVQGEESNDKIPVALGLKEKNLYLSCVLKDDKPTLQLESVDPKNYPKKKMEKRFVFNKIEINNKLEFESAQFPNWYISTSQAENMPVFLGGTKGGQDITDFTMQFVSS
Kind of assay: IL-6 assay in MRC5 cells: inhibition of IL-1β induced IL-6 secretion (AlphaLISA). It is filed as cell-based. Particulars: inhibition of IL-1β induced IL-6 secretion in MRC5 cells; compound pre-incubated 1 hour with recombinant human IL-1β; read-out: MRC5 IC50. The method in brief:
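Compound was pre-incubated 1 h at ambient temperature with recombinant human IL-1β at 2λ EC80 before adding human lung fibroblast MRC5 cells (3000/well) in EMEM with 0.025% BSA. After overnight culture at 37 °C, 5% CO2, secreted IL-6 in conditioned medium was measured by AlphaLISA; IC50 from 4-parameter logistic fits.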
In general terms: Bead proximity is the source of the signal in Alpha formats.
Turning to `C[C@@H](c1c[nH]c2cccc(F)c12)[C@@H]1NC(=O)[C@@H]2C[C@H](F)CN2C(=O)CNC(=O)[C@H](Cc2ccc(C(=O)O)cc2)NC(=O)[C@H](Cc2ccncc2)NC(=O)[C@H](Cc2ccc(-c3ccc(C(=O)O)cc3)cc2)NC(=O)[C@H]2C[C@@H](Cc3ccncc3)CN2C(=O)CNC(=O)[C@H](CCN)NC(=O)[C@H](CCC(N)=O)NC(=O)[C@@H](CO)NC(=O)[C@@](C)(CC(=O)O)NC(=O)[C@H](Cc2c[nH]c3ccccc23)NC(=O)[C@H](CO)NC(=O)C(C)(C)NC1=O` [Example 242] (cyclo([Bip(4'-COOH)][4Pal][Phe(4-COOH)]G[Pro(cis-4-F)][Trp(βS-Me,4-F)][Aib]SW[d(αMeD)][dS]Q[Dab]G[dPro(4R-(4-pyridylmethyl))])), the IC50 was determined as 0.019 nM.

For the molecule `C[C@@H](c1c[nH]c2cccc(F)c12)[C@@H]1NC(=O)[C@@H]2C[C@H](F)CN2C(=O)CNC(=O)[C@H](Cc2ccc(C(=O)O)cc2)NC(=O)[C@H](Cc2ccncc2)NC(=O)[C@H](Cc2ccc(-c3ccc(C(=O)O)cc3)cc2)NC(=O)[C@H]2C[C@@H](Cc3ccncc3)CN2C(=O)CNC(=O)[C@H](CCN)NC(=O)[C@H](CCC(N)=O)NC(=O)[C@@H](Cc2ccccc2)NC(=O)[C@@](C)(CC(=O)O)NC(=O)[C@H](Cc2c[nH]c3ccccc23)NC(=O)[C@H](CO)NC(=O)C(C)(C)NC1=O` [Example 243] (cyclo([Bip(4'-COOH)][4Pal][Phe(4-COOH)]G[Pro(cis-4-F)][Trp(βS-Me,4-F)][Aib]SW[d(αMeD)][dF]Q[Dab]G[dPro(4R-(4-pyridylmethyl))])), the IC50 turned out to be 0.022 nM.

With `C[C@@H](c1c[nH]c2cccc(F)c12)[C@@H]1NC(=O)[C@@H]2C[C@H](F)CN2C(=O)CNC(=O)[C@H](Cc2ccc(C(=O)O)cc2)NC(=O)[C@H](Cc2ccncc2)NC(=O)[C@H](Cc2ccc(-c3ccccc3)cc2)NC(=O)[C@H]2C[C@@H](Cc3ccncc3)CN2C(=O)CNC(=O)[C@H](CNC(N)=O)NC(=O)[C@H](CCC(N)=O)NC(=O)[C@@H](CCCCN)NC(=O)[C@@](C)(CC(=O)O)NC(=O)[C@H](Cc2c[nH]c3ccccc23)NC(=O)[C@H](CO)NC(=O)C(C)(C)NC1=O` [Example 244] (cyclo([Bip][4Pal][Phe(4-COOH)]G[Pro(cis-4-F)][Trp(βS-Me,4-F)][Aib]SW[d(αMeD)][dK]Q[Dap(CONH2)]G[dPro(4R-(4-pyridylmethyl))])), the IC50 was 0.03 nM.

On to `C[C@@H](c1c[nH]c2cccc(F)c12)[C@@H]1NC(=O)[C@@H]2C[C@H](F)CN2C(=O)CNC(=O)[C@H](Cc2ccc(C(=O)O)cc2)NC(=O)[C@H](Cc2ccncc2)NC(=O)[C@H](Cc2ccc(-c3ccccc3)cc2)NC(=O)[C@H]2C[C@@H](Cc3ccncc3)CN2C(=O)CNC(=O)[C@H](CNC(N)=O)NC(=O)[C@H](CCC(N)=O)NC(=O)[C@@H](CCCN)NC(=O)[C@@](C)(CC(=O)O)NC(=O)[C@H](Cc2c[nH]c3ccccc23)NC(=O)[C@H](CO)NC(=O)C(C)(C)NC1=O` [Example 245] (cyclo([Bip][4Pal][Phe(4-COOH)]G[Pro(cis-4-F)][Trp(βS-Me,4-F)][Aib]SW[d(αMeD)][dOrn]Q[Dap(CONH2)]G[dPro(4R-(4-pyridylmethyl))])), for which the IC50 was 0.027 nM.

Take `C[C@@H](c1c[nH]c2cccc(F)c12)[C@@H]1NC(=O)[C@@H]2C[C@H](F)CN2C(=O)CNC(=O)[C@H](Cc2ccc(C(=O)O)cc2)NC(=O)[C@H](Cc2ccncc2)NC(=O)[C@H](Cc2ccc(-c3ccccc3)cc2)NC(=O)[C@H]2C[C@@H](Cc3ccncc3)CN2C(=O)CNC(=O)[C@H](CNC(N)=O)NC(=O)[C@H](CCC(N)=O)NC(=O)[C@@H](CN)NC(=O)[C@@](C)(CC(=O)O)NC(=O)[C@H](Cc2c[nH]c3ccccc23)NC(=O)[C@H](CO)NC(=O)C(C)(C)NC1=O` [Example 246] (cyclo([Bip][4Pal][Phe(4-COOH)]G[Pro(cis-4-F)][Trp(βS-Me,4-F)][Aib]SW[d(αMeD)][dDap]Q[Dap(CONH2)]G[dPro(4R-(4-pyridylmethyl))])): the IC50 worked out at 0.031 nM.

On to `C[C@@H](c1c[nH]c2cccc(F)c12)[C@@H]1NC(=O)[C@@H]2C[C@H](F)CN2C(=O)CNC(=O)[C@H](Cc2ccc(C(=O)O)cc2)NC(=O)[C@H](Cc2ccncc2)NC(=O)[C@H](Cc2ccc(-c3ccccc3)cc2)NC(=O)[C@H]2C[C@@H](Cc3ccncc3)CN2C(=O)CNC(=O)[C@H](CNC(N)=O)NC(=O)[C@H](CCC(N)=O)NC(=O)[C@@H](CCN)NC(=O)[C@@](C)(CC(=O)O)NC(=O)[C@H](Cc2c[nH]c3ccccc23)NC(=O)[C@H](CO)NC(=O)C(C)(C)NC1=O` [Example 247] (cyclo([Bip][4Pal][Phe(4-COOH)]G[Pro(cis-4-F)][Trp(βS-Me,4-F)][Aib]SW[d(αMeD)][dDab]Q[Dap(CONH2)]G[dPro(4R-(4-pyridylmethyl))])), for which the IC50 amounted to 0.03 nM.

With `C[C@@H](c1c[nH]c2cccc(F)c12)[C@@H]1NC(=O)[C@@H]2C[C@H](F)CN2C(=O)CNC(=O)[C@H](Cc2ccc(C(=O)O)cc2)NC(=O)[C@H](Cc2ccncc2)NC(=O)[C@H](Cc2ccc(-c3ccccc3)cc2)NC(=O)[C@H]2C[C@@H](Cc3ccncc3)CN2C(=O)CNC(=O)[C@H](CCN)NC(=O)[C@H](CCC(N)=O)NC(=O)[C@@H](CCN)NC(=O)[C@@](C)(CC(=O)O)NC(=O)[C@H](Cc2c[nH]c3ccccc23)NC(=O)[C@H](CO)NC(=O)C(C)(C)NC1=O` [Example 248] (cyclo([Bip][4Pal][Phe(4-COOH)]G[Pro(cis-4-F)][Trp(βS-Me,4-F)][Aib]SW[d(αMeD)][dDab]Q[Dab]G[dPro(4R-(4-pyridylmethyl))])), the IC50 amounted to 0.028 nM.

Take `C[C@@H](c1c[nH]c2cccc(F)c12)[C@@H]1NC(=O)[C@@H]2C[C@H](F)CN2C(=O)CNC(=O)[C@H](Cc2ccc(C(=O)O)cc2)NC(=O)[C@H](Cc2ccncc2)NC(=O)[C@H](Cc2ccc(-c3ccccc3)cc2)NC(=O)[C@H]2C[C@@H](Cc3ccncc3)CN2C(=O)CNC(=O)[C@H](CCN)NC(=O)[C@H](CCC(N)=O)NC(=O)[C@@H](CCC(=O)O)NC(=O)[C@@](C)(CC(=O)O)NC(=O)[C@H](Cc2c[nH]c3ccccc23)NC(=O)[C@H](CO)NC(=O)C(C)(C)NC1=O` [Example 249] (cyclo([Bip][4Pal][Phe(4-COOH)]G[Pro(cis-4-F)][Trp(βS-Me,4-F)][Aib]SW[d(αMeD)][dE]Q[Dab]G[dPro(4R-(4-pyridylmethyl))])): the IC50 came to 0.016 nM.

On to `C[C@@H](c1c[nH]c2cccc(F)c12)[C@@H]1NC(=O)[C@@H]2C[C@H](F)CN2C(=O)CNC(=O)[C@H](Cc2ccc(C(=O)O)cc2)NC(=O)[C@H](Cc2ccncc2)NC(=O)[C@H](Cc2ccc(-c3ccccc3)cc2)NC(=O)[C@H]2C[C@@H](Cc3ccncc3)CN2C(=O)CNC(=O)[C@H](CCN)NC(=O)[C@H](CCC(N)=O)NC(=O)[C@@H](CCC(=O)O)NC(=O)C(C)(C)NC(=O)[C@H](Cc2c[nH]c3ccccc23)NC(=O)[C@H](CO)NC(=O)C(C)(C)NC1=O` [Example 250] (cyclo([Bip][4Pal][Phe(4-COOH)]G[Pro(cis-4-F)][Trp(βS-Me,4-F)][Aib]SW[Aib][dE]Q[Dab]G[dPro(4R-(4-pyridylmethyl))])), for which the IC50 was found to be 0.027 nM.

Take `C[C@@H](c1c[nH]c2cccc(F)c12)[C@@H]1NC(=O)[C@@H]2C[C@H](F)CN2C(=O)CNC(=O)[C@H](Cc2ccc(C(=O)O)cc2)NC(=O)[C@H](Cc2ccncc2)NC(=O)[C@H](Cc2ccc(-c3ccc(C(=O)O)cc3)cc2)NC(=O)[C@H]2C[C@@H](Cc3ccncc3)CN2C(=O)CNC(=O)[C@H](CCN)NC(=O)[C@H](CCC(N)=O)NC(=O)[C@H](Cc2cncnc2)NC(=O)[C@@](C)(CC(=O)O)NC(=O)[C@H](Cc2c[nH]c3cccc(Cl)c23)NC(=O)[C@H](CO)NC(=O)C(C)(C)NC1=O` [Example 251] (cyclo([Bip(4'-COOH)][4Pal][Phe(4-COOH)]G[Pro(cis-4-F)][Trp(βS-Me,4-F)][Aib]S[Trp(4-Cl)][d(αMeD)][Ala(pyrimidin-5-yl)]Q[Dab]G[dPro(4R-(4-pyridylmethyl))])): the IC50 amounted to 0.013 nM.

As to `C[C@@H](c1c[nH]c2cccc(F)c12)[C@@H]1NC(=O)[C@@H]2C[C@H](F)CN2C(=O)CNC(=O)[C@H](Cc2ccc(C(=O)O)cc2)NC(=O)[C@H](Cc2ccncc2)NC(=O)[C@H](Cc2ccc(-c3ccc(C(=O)O)cc3)cc2)NC(=O)[C@H]2C[C@@H](Cc3ccncc3)CN2C(=O)CNC(=O)[C@H](CCN)NC(=O)[C@H](CCC(N)=O)NC(=O)[C@H](Cc2cncnc2)NC(=O)[C@@](C)(CC(=O)O)NC(=O)[C@H](Cc2c[nH]c3cccc(F)c23)NC(=O)[C@H](CO)NC(=O)C(C)(C)NC1=O` [Example 252] (cyclo([Bip(4'-COOH)][4Pal][Phe(4-COOH)]G[Pro(cis-4-F)][Trp(βS-Me,4-F)][Aib]S[Trp(4-F)][d(αMeD)][Ala(pyrimidin-5-yl)]Q[Dab]G[dPro(4R-(4-pyridylmethyl))])), the IC50 is 0.013 nM.

Turning to `CCC[C@@H]1NC(=O)[C@@](C)(CC(=O)O)NC(=O)[C@H](Cc2c[nH]c3ccccc23)NC(=O)[C@H](CO)NC(=O)C(C)(C)NC(=O)[C@H]([C@@H](C)c2c[nH]c3cccc(F)c23)NC(=O)[C@@H]2C[C@H](F)CN2C(=O)CNC(=O)[C@H](Cc2ccc(C(=O)O)cc2)NC(=O)[C@H](Cc2ccncc2)NC(=O)[C@H](Cc2ccc(-c3ccc(C(=O)O)cc3)cc2)NC(=O)[C@H]2C[C@@H](Cc3ccncc3)CN2C(=O)CNC(=O)[C@H](CCN)NC(=O)[C@H](CCC(N)=O)NC1=O` [Example 253] (cyclo([Bip(4'-COOH)][4Pal][Phe(4-COOH)]G[Pro(cis-4-F)][Trp(βS-Me,4-F)][Aib]SW[d(αMeD)][Nva]Q[Dab]G[dPro(4R-(4-pyridylmethyl))])), the IC50 was 0.013 nM.

As for `CO[C@@H](C)[C@@H]1NC(=O)[C@@](C)(CC(=O)O)NC(=O)[C@H](Cc2c[nH]c3ccccc23)NC(=O)[C@H](CO)NC(=O)C(C)(C)NC(=O)[C@H]([C@@H](C)c2c[nH]c3cccc(F)c23)NC(=O)[C@@H]2C[C@H](F)CN2C(=O)CNC(=O)[C@H](Cc2ccc(C(=O)O)cc2)NC(=O)[C@H](Cc2ccncc2)NC(=O)[C@H](Cc2ccc(-c3ccc(C(=O)O)cc3)cc2)NC(=O)[C@H]2C[C@@H](Cc3ccncc3)CN2C(=O)CNC(=O)[C@H](CCN)NC(=O)[C@H](CCC(N)=O)NC1=O` [Example 254] (cyclo([Bip(4'-COOH)][4Pal][Phe(4-COOH)]G[Pro(cis-4-F)][Trp(βS-Me,4-F)][Aib]SW[d(αMeD)][aThr](Me)Q[Dab]G[dPro(4R-(4-pyridylmethyl))])), the 50% inhibitory concentration (IC50) is 0.013 nM.
